# Experimental data: ChEMBL document CHEMBL1201862, “PubChem BioAssay data set” (2004)
#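 1) Cells in 96-well plates. 2) Compound, 48 h, 5 concentrations. 3) Linear interpolation between surrounding doses. 4) Unreached endpoint = highest concentration. The concentration for 50% growth inhibition is given as GI50.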 Calls of active or inactive are those of the source. Cut-off read from the data, not from the text of the source: active = GI50 up to about 1.1 µM and inactive = higher.
# Key:
# Experiment in all cases: DTP human tumour cell line panel, 48 h
# [1] = test system: UACC-257
# [2] = test system: KM12
# [3] = test system: IGROV-1
# [4] = test system: HOP-92
# [5] = test system: EKVX
# [6] = test system: HL-60
# [7] = test system: SF-295
# [8] = test system: HT-29
# [9] = test system: SN12C
# [10] = test system: KM-20L2
# [11] = test system: UO-31
# [12] = test system: SK-OV-3
# [13] = test system: DMS-114
# [14] = test system: NCI/ADR-RES
# [15] = test system: SNB-78
# [16] = test system: LOX IMVI
# [17] = test system: NCI-H23
# [18] = test system: NCI-H226
# [19] = test system: OVCAR-4
# [20] = test system: HOP-62
# [21] = test system: K562
# [22] = test system: A498
# [23] = test system: A549
# [24] = test system: U-251
# [25] = test system: DLD-1
# [26] = test system: SK-MEL-2
# [27] = test system: M19-MEL
# [28] = test system: COLO 205
# [29] = test system: SK-MEL-5
# [30] = test system: HCT-116
# [31] = test system: MCF7
# [32] = test system: OVCAR-3
# [33] = test system: NCI-H522
# [34] = test system: HOP-18
# [35] = test system: DMS-273
# [36] = test system: Malme-3M
# [37] = test system: XF498
# [38] = test system: CCRF-CEM
# [39] = test system: RPMI-8226
# [40] = test system: HCT-15
# [41] = test system: SF-268
# [42] = test system: OVCAR-8
# [43] = test system: SW-620
# [44] = test system: SK-MEL-28
# [45] = test system: SNB-19
# [46] = test system: HCC 2998
# [47] = test system: NCI-H460
# [48] = test system: OVCAR-5
# [49] = test system: RXF 393
# [50] = test system: UACC-62
# [51] = test system: MOLT-4
# [52] = test system: SNB-75
# [53] = test system: SF-539
# [54] = test system: M14
# [55] = test system: SR
# [56] = test system: 786-0
# [57] = test system: TK-10
# [58] = test system: LXFL 529
# [59] = test system: ACHN
# [60] = test system: CAKI-1
structure (smiles),measurement,setting,value
O=C1ON(Cc2ccccc2)C(c2ccccc2)N1c1ccccc1 (stereo not given),GI50,[1],> 100 µM (inactive)
same,GI50,[2],> 100 µM (inactive)
same,GI50,[3],> 100 µM (inactive)
same,GI50,[4],> 100 µM (inactive)
same,GI50,[5],> 100 µM (inactive)
same,GI50,[6],> 70.5 µM (inactive)
same,GI50,[7],> 64 µM (inactive)
same,GI50,[8],> 100 µM (inactive)
same,GI50,[9],> 100 µM (inactive)
same,GI50,[10],> 100 µM (inactive)
same,GI50,[11],> 100 µM (inactive)
same,GI50,[12],> 100 µM (inactive)
same,GI50,[13],> 100 µM (inactive)
same,GI50,[14],> 100 µM (inactive)
same,GI50,[15],> 100 µM (inactive)
same,GI50,[16],> 100 µM (inactive)
same,GI50,[17],> 100 µM (inactive)
same,GI50,[18],99.1 µM (inactive)
same,GI50,[19],> 100 µM (inactive)
same,GI50,[20],> 100 µM (inactive)
same,GI50,[21],> 95.9 µM (inactive)
same,GI50,[22],> 100 µM (inactive)
same,GI50,[23],> 100 µM (inactive)
same,GI50,[24],> 100 µM (inactive)
same,GI50,[25],> 100 µM (inactive)
same,GI50,[26],> 100 µM (inactive)
same,GI50,[27],> 100 µM (inactive)
same,GI50,[28],> 100 µM (inactive)
same,GI50,[29],> 100 µM (inactive)
same,GI50,[30],> 100 µM (inactive)
same,GI50,[31],> 100 µM (inactive)
same,GI50,[32],> 100 µM (inactive)
same,GI50,[33],> 100 µM (inactive)
same,GI50,[34],> 100 µM (inactive)
same,GI50,[35],> 100 µM (inactive)
same,GI50,[36],> 100 µM (inactive)
same,GI50,[37],> 100 µM (inactive)
same,GI50,[38],> 100 µM (inactive)
same,GI50,[39],> 100 µM (inactive)
same,GI50,[40],> 100 µM
same,GI50,[41],> 100 µM (inactive)
same,GI50,[42],> 100 µM (inactive)
same,GI50,[43],> 100 µM (inactive)
same,GI50,[44],> 100 µM (inactive)
same,GI50,[45],> 100 µM (inactive)
same,GI50,[46],> 100 µM (inactive)
same,GI50,[47],> 100 µM (inactive)
same,GI50,[48],> 100 µM (inactive)
same,GI50,[49],> 100 µM (inactive)
same,GI50,[50],98.9 µM (inactive)
same,GI50,[51],71.6 µM (inactive)
same,GI50,[52],62.7 µM (inactive)
same,GI50,[53],> 100 µM (inactive)
COc1cc2c(cc1OC)C(C#N)N(C(=O)c1ccccc1)C=C2OC(=O)c1ccccc1 (stereo not given),GI50,[1],23.4 µM (inactive)
same,GI50,[2],34.4 µM (inactive)
same,GI50,[3],24.8 µM (inactive)
same,GI50,[4],27 µM (inactive)
same,GI50,[5],28.7 µM (inactive)
same,GI50,[6],> 100 µM (inactive)
same,GI50,[7],22.5 µM (inactive)
same,GI50,[8],48.5 µM (inactive)
same,GI50,[9],38.5 µM (inactive)
same,GI50,[10],52.4 µM (inactive)
same,GI50,[11],20.4 µM (inactive)
same,GI50,[12],65.8 µM (inactive)
same,GI50,[13],31 µM (inactive)
same,GI50,[15],30 µM (inactive)
same,GI50,[16],39.4 µM (inactive)
same,GI50,[17],44.9 µM (inactive)
same,GI50,[18],23.2 µM (inactive)
same,GI50,[20],17.6 µM (inactive)
same,GI50,[21],32.7 µM (inactive)
same,GI50,[54],37.8 µM (inactive)
same,GI50,[24],24.7 µM (inactive)
same,GI50,[25],29.6 µM (inactive)
same,GI50,[26],22.6 µM (inactive)
same,GI50,[55],61.5 µM (inactive)
same,GI50,[27],33.7 µM (inactive)
same,GI50,[28],46.6 µM (inactive)
same,GI50,[29],23.9 µM (inactive)
same,GI50,[56],18.1 µM (inactive)
same,GI50,[32],21.3 µM (inactive)
same,GI50,[33],17.2 µM (inactive)
same,GI50,[34],22 µM (inactive)
same,GI50,[57],27.1 µM (inactive)
same,GI50,[35],21.7 µM (inactive)
same,GI50,[36],25.3 µM (inactive)
same,GI50,[37],26.5 µM (inactive)
same,GI50,[38],36.6 µM (inactive)
same,GI50,[39],39.2 µM (inactive)
same,GI50,[40],32.1 µM
same,GI50,[41],30.8 µM (inactive)
same,GI50,[42],27.9 µM (inactive)
same,GI50,[43],33 µM (inactive)
same,GI50,[44],22.9 µM (inactive)
same,GI50,[45],23.6 µM (inactive)
same,GI50,[46],45.1 µM (inactive)
same,GI50,[47],36.4 µM (inactive)
same,GI50,[48],> 100 µM (inactive)
same,GI50,[50],20.5 µM (inactive)
same,GI50,[51],77.8 µM (inactive)
same,GI50,[52],17 µM (inactive)
same,GI50,[58],20.6 µM (inactive)
same,GI50,[59],20 µM (inactive)
same,GI50,[53],19.1 µM (inactive)
Cc1ccc(S(=O)OCC23CC4CC(CC(C4)C2)C3)cc1 (stereo not given),GI50,[1],> 100 µM (inactive)
same,GI50,[2],> 100 µM (inactive)
same,GI50,[3],> 100 µM (inactive)
same,GI50,[4],> 100 µM (inactive)
same,GI50,[5],> 100 µM (inactive)
same,GI50,[6],> 100 µM (inactive)
same,GI50,[7],> 100 µM (inactive)
same,GI50,[8],> 100 µM (inactive)
same,GI50,[9],> 100 µM (inactive)
same,GI50,[10],> 100 µM (inactive)
same,GI50,[11],72.8 µM (inactive)
same,GI50,[12],> 100 µM (inactive)
same,GI50,[15],> 100 µM (inactive)
same,GI50,[16],> 100 µM (inactive)
same,GI50,[17],> 100 µM (inactive)
same,GI50,[18],> 100 µM (inactive)
same,GI50,[19],> 100 µM (inactive)
same,GI50,[20],> 100 µM (inactive)
same,GI50,[21],> 100 µM (inactive)
same,GI50,[22],> 100 µM (inactive)
same,GI50,[54],> 100 µM (inactive)
same,GI50,[23],> 100 µM (inactive)
same,GI50,[24],> 100 µM (inactive)
same,GI50,[25],> 100 µM (inactive)
same,GI50,[55],> 100 µM (inactive)
same,GI50,[27],> 100 µM (inactive)
same,GI50,[28],> 100 µM (inactive)
same,GI50,[29],> 100 µM (inactive)
same,GI50,[30],> 100 µM (inactive)
same,GI50,[60],> 100 µM (inactive)
same,GI50,[56],> 100 µM (inactive)
same,GI50,[32],> 100 µM (inactive)
same,GI50,[33],> 100 µM (inactive)
same,GI50,[34],> 100 µM (inactive)
same,GI50,[57],> 100 µM (inactive)
same,GI50,[35],> 100 µM (inactive)
same,GI50,[36],> 100 µM (inactive)
same,GI50,[37],> 100 µM (inactive)
same,GI50,[39],> 100 µM (inactive)
same,GI50,[40],> 100 µM
same,GI50,[41],> 100 µM (inactive)
same,GI50,[42],> 100 µM (inactive)
same,GI50,[43],> 100 µM (inactive)
same,GI50,[44],> 100 µM (inactive)
same,GI50,[45],> 100 µM (inactive)
same,GI50,[46],> 100 µM (inactive)
same,GI50,[47],> 100 µM (inactive)
same,GI50,[48],> 100 µM (inactive)
same,GI50,[49],> 100 µM (inactive)
same,GI50,[50],> 100 µM (inactive)
same,GI50,[51],> 100 µM (inactive)
same,GI50,[52],> 100 µM (inactive)
same,GI50,[58],> 100 µM (inactive)
same,GI50,[59],> 100 µM (inactive)
same,GI50,[53],> 100 µM (inactive)
